Earlier results in patent publication US7217837B2, “Method for producing organic acid” (Mitsubishi Chemical Corporation, priority 2002, dated 2007).

How the values were obtained:
[1] = water, Table 1, literature values
[2] = Table 1; literature values
[3] = Table 1; for pKa1: literature values (Pyne Organic Chemistry; Handbook of Chemistry and Physics); for pKa2: literature values

Structure (SMILES) | Solubility at 25° C. [1] | Isoelectric point pI [2] | pKa1 [3] | pKa2 [3]
NC(=O)CC[C@H](N)C(=O)O [Glutamine] | 3.6 g/100 gH2O |  |  | 
N[C@@H](Cc1c[nH]c2ccccc12)C(=O)O [Tryptophan] | 1.14 g/100 gH2O | 5.88 | 2.38 | 
NC(=O)C[C@H](N)C(=O)O [Asparagine] | 3.11 g/100 gH2O | 5.41 | 2.02 | 
N[C@@H](CCC(=O)O)C(=O)O [Glutamic acid] |  | 3.08 |  | 
O=C(O)CCCC(=O)O [Glutaric acid] |  |  | 4.31 | 5.41
N[C@@H](Cc1c[nH]cn1)C(=O)O [Histidine] | 4.29 g/100 gH2O | 7.64 |  | 
N[C@@H](CC(=O)O)C(=O)O [Aspartic acid] |  | 2.98 |  | 
CC[C@H](C)[C@H](N)C(=O)O [Isoleucine] | 4.117 g/100 gH2O | 6.04 | 2.32 | 

The next lines start with results.

Solubility at 25° C. [1] | Isoelectric point pI [2] | pKa1 [3] | Structure (SMILES) | pKa2 [3]
2.965 g/100 gH2O | 5.91 | 2.58 | N[C@@H](Cc1ccccc1)C(=O)O [Phenylalanine] | 
3.35 g/100 gH2O | 5.74 | 2.28 | CSCC[C@H](N)C(=O)O [Methionine] | 
2.19 g/100 gH2O |  |  | CC(C)C[C@H](N)C(=O)O [Leucine] | 
 |  | 3.40 | O=C(O)CC(O)C(=O)O (stereo not drawn) [Malic acid] | 5.11
 | 5.66 |  | N[C@@H](Cc1ccc(O)cc1)C(=O)O [Tyrosine] | 
 |  | 4.52 | O=C(O)CCCCCCC(=O)O [Suberic acid] | 
8.85 g/100 gH2O | 6 | 2.29 | CC(C)[C@H](N)C(=O)O [Valine] | 
